We go through two molecules from US20230339939A1 (Bayer Aktiengesellschaft, priority 2020, published 2023).

Holding throughout (format): biochemical
Assay [1] concerns the target T1, CSNK1A1 (Homo sapiens (Human), UniProt P48729). The assay can be described thus: CSNK1A1 Assay 2 (ADP-Glo, 1 μM ATP, substrate biotin-Ahx-KRRRAL-pS-VASLPGL). As to conditions: median, read-out: CSNK1A1 Assay 2 IC50 [mol/l] (median). The procedure: (§1) CSNK1A1-inhibitory activity of compounds of the present invention in presence of 1 μM adenosine-tri-phosphate (ATP) was quantified employing the CSNK1A1 assay as described in the following paragraphs. In essence, the enzyme activity is measured by quantification of the adenosine-di-phosphate (ADP), which is generated as a co-product of the enzyme reaction, via the “ADP-Glo™ Kinase Assay” kit from the company Promega. This detection system works as follows: In a first step the ATP not consumed in the kinase reaction is quantitatively converted to cAMP employing an adenylate cyclase (“ADP-Glo-reagent”), then the adenylate cyclase is stopped and the ADP generated in the kinase reaction converted to ATP which generates in a luciferase-based reaction a glow-luminescence signal (“Kinase Detection Reagent”).
(§2) Recombinant fusion protein of N-terminal Glutathion-S-Transferase (GST) and full-length human CSNK1A1, expressed by baculovirus infected insect cells and purified via Glutathion affinity chromatography, was purchased from Life Technologies (product no. PV4174) and used as enzyme. As substrate for the kinase reaction the biotinylated peptide biotin-Ahx-KRRRAL-pS-VASLPGL (C-terminus in amide form) was used which can be purchased e.g. from the company Biosyntan (Berlin-Buch, Germany).
For the assay 50 nl of a 100 fold concentrated solution of the test compound in DMSO was pipetted into a white 1536-well microtiter plate (Greiner Bio-One, Frickenhausen, Germany), 2 μL of a solution of CSNK1A1 in aqueous assay buffer [50 mM HEPES pH 7.5, 10% (v/v) glycerol, 10 mM MgCl2, 50 mM NaCl, 1 mM dithiothreitol, 0.01% (w/v) bovine serum albumin, 0.01% (v/v) Triton X-100] were added and the mixture was incubated for 15 min at 22° C. to allow pre-binding of the test compounds to the enzyme before the start of the kinase reaction. […] The concentration of CSNK1A1 was adjusted depending of the activity of the enzyme lot and was chosen appropriate to have the assay in the linear range, a typical concentrations are about 0.0375 ng/μL. The reaction was stopped by the addition of 2.5 μL of “ADP-Glo-reagent” (1:1.5 fold diluted with water) and the resulting mixture was incubated at 22° C. for 1 h to convert the ATP not consumed in the kinase reaction completely […]. Subsequently 2.5 μL of the “kinase detection reagent” (1.2 fold more concentrated than recommended by the producer) were added, the resulting mixture was incubated at 22° C. for 1 h and then the luminescence measured with a suitable measurement instrument (e.g. Viewlux™ from Perkin-Elmer). The amount of emitted light was taken as a measure for the amount of ADP generated and thereby for the activity of the CSNK1A1.
(In ADP-Glo the light output rises with the ADP produced.)

The next assay addresses CSNK1D (Homo sapiens (Human), UniProt P48730). The experiment in a line: CSNK1D Assay (ADP-Glo, 1 μM ATP). The following applies: median, read-out: CSNK1D IC50 [mol/l] (median). The procedure:
CSNK1D-inhibitory activity of compounds of the present invention in presence of 1 μM adenosine-tri-phosphate (ATP) was quantified employing the CSNK1 D assay as described in the following paragraphs. In essence, the enzyme activity is measured by quantification of the adenosine-di-phosphate (ADP), which is generated as a co-product of the enzyme reaction, via the “ADP-Glo™ Kinase Assay” kit from the company Promega. This detection system works as follows: In a first step the ATP not consumed in the kinase reaction is quantitatively converted to cAMP employing an adenylate cyclase (“ADP-Glo-reagent”), then the adenylate cyclase is stopped and the ADP generated in the kinase reaction converted to ATP which generates in a luciferase-based reaction a glow-luminescence signal (“Kinase Detection Reagent”).
Recombinant fusion protein of N-terminal Glutathion-S-Transferase (GST) and full-length human CSNK1D, expressed by baculovirus infected insect cells and purified via Glutathion affinity chromatography, was purchased from Life Technologies (product no. PV3665) and used as enzyme. As substrate for the kinase reaction the biotinylated peptide Btn-Ahx-[…] (C-terminus in amide form) was used which can be purchased e.g. from the company Biosyntan (Berlin-Buch, Germany).
For the assay 50 nl of a 100 fold concentrated solution of the test compound in DMSO was pipetted into a white 1536-well microtiter plate (Greiner Bio-One, Frickenhausen, Germany), 2 μL of a solution of CSNK1D in aqueous assay buffer [50 mM HEPES pH 7.5, 10% (v/v) glycerol, 10 mM MgCl2, 50 mM NaCl, 1 mM dithiothreitol, 0.01% (w/v) bovine serum albumin, 0.01% (v/v) Triton X-100] were added and the mixture was incubated for 15 min at 22° C. to allow pre-binding of the test compounds to the enzyme before the start of the kinase reaction. […] The concentration of CSNK1D was adjusted depending of the activity of the enzyme lot and was chosen appropriate to have the assay in the linear range, a typical concentration is about 0.5 ng/μL. The reaction was stopped by the addition of 2.5 μL of “ADP-Glo-reagent” (1:1.5 fold diluted with water) and the resulting mixture was incubated at 22° C. for 1 h to convert the ATP not consumed in the kinase reaction completely […]. Subsequently 2.5 μL of the “kinase detection reagent” (1.2 fold more concentrated than recommended by the producer) were added, the resulting mixture was incubated at 22° C. for 1 h and then the luminescence measured with a suitable measurement instrument (e.g. Viewlux™ from Perkin-Elmer). The amount of emitted light was taken as a measure for the amount of ADP generated and thereby for the activity of the CSNK1D.

For assay [2], the target named is T1, CSNK1A1. The assay can be described thus: CSNK1A1 High ATP Assay (ADP-Glo, 1 mM ATP). As to conditions: median, read-out: CSNK1A1 high ATP assay IC50 [mol/l] (median). The procedure:
CSNK1A1-inhibitory activity of compounds of the present invention in presence of 1 mM adenosine-tri-phosphate (ATP) was quantified employing the CSNK1A1-high-ATP-assay as described in the following paragraphs. In essence, the enzyme activity is measured by quantification of the adenosine-di-phosphate (ADP), which is generated as a co-product of the enzyme reaction, via the “ADP-Glo™ Kinase Assay” kit from the company Promega. This detection system works as follows: In a first step the ATP not consumed in the kinase reaction is quantitatively converted to cAMP employing an adenylate cyclase (“ADP-Glo-reagent”), then the adenylate cyclase is stopped and the ADP generated in the kinase reaction converted to ATP which generates in a luciferase-based reaction a glow-luminescence signal (“Kinase Detection Reagent”).
as §2
For the assay 50 nl of a 100 fold concentrated solution of the test compound in DMSO was pipetted into a white low volume 384-well microtiter plate (Greiner Bio-One, Frickenhausen, Germany), 2 μL of a solution of CSNK1A1 in aqueous assay buffer [50 mM HEPES pH 7.5, 10% (v/v) glycerol, 10 mM MgCl2, 50 mM NaCl, 1 mM dithiothreitol, 0.01% (w/v) bovine serum albumin, 0.01% (v/v) Triton X-100] were added and the mixture was incubated for 15 min at 22° C. to allow pre-binding of the test compounds to the enzyme before the start of the kinase reaction. […] The concentration of CSNK1A1 was adjusted depending of the activity of the enzyme lot and was chosen appropriate to have the assay in the linear range, a typical concentration is about 0.4 ng/μL. The reaction was stopped by the addition of 2.5 μL of “ADP-Glo-reagent” (1:1.5 fold diluted with water) and the resulting mixture was incubated at 22° C. for 1 h to convert the ATP not consumed in the kinase reaction completely […]. Subsequently 2.5 μL of the “kinase detection reagent” (1.2 fold more concentrated than recommended by the producer) were added, the resulting mixture was incubated at 22° C. for 1 h and then the luminescence measured with a suitable measurement instrument (e.g. Viewlux™ from Perkin-Elmer). The amount of emitted light was taken as a measure for the amount of ADP generated and thereby for the activity of the CSNK1A1.

Assay [3] deals with T1, CSNK1A1. The experiment in a line: CSNK1A1 Assay 1 (ADP-Glo, 1 μM ATP, substrate Btn-Ahx-[…]). The following applies: median, comparison compounds of WO 2016/120196 (Table 4), read-out: CSNK1A1 Assay 1 IC50 [mol/l] (median). The procedure:
as §1
Recombinant fusion protein of N-terminal Glutathion-S-Transferase (GST) and full-length human CSNK1A1, expressed by baculovirus infected insect cells and purified via Glutathion affinity chromatography, was purchased from Life Technologies (product no. PV4174) and used as enzyme. As substrate for the kinase reaction the biotinylated peptide Btn-Ahx-[…] (C-terminus in amide form) was used which can be purchased e.g. from the company Biosyntan (Berlin-Buch, Germany). […]

Assay [4] has as its target wild-type Epidermal Growth Factor Receptor (EGFR) (Homo sapiens (Human), UniProt P00533). The assay can be described thus: WT-EGFR Kinase Assay (TR-FRET, 2 mM ATP). The following applies: read-out: EGFR Wildtype-2 mM ATP IC50 [mol/l] (median), comparison compounds of WO 2016/120196 (Table 4). An excerpt: Inhibitory activity of compounds of the present invention against wild-type Epidermal Growth Factor Receptor (EGFR) was quantified employing the TR-FRET based EGFR assay as described in the following paragraphs.
Recombinant fusion protein of N-terminal Glutathion-S-Transferase (GST) and a fragment of human EGFR (amino acids R669 to A1210), expressed in Sf9 insect cells and purified via affinity chromatography using Glutathion Sepharose as described above, was used as kinase. As substrate for the kinase reaction the biotinylated peptide biotin-Ahx-[…] (C-terminus in amide form) was used which can be purchased e.g. form the company Biosynthan GmbH (Berlin-Buch, Germany).
For the assay 50 nl of a 100 fold concentrated solution of the test compound in DMSO was pipetted into either a black low volume 384 well microtiter plate or a black 1536 well microtiter plate (both Greiner Bio-One, Frickenhausen, Germany), 2 μL of a solution of EGFR in aqueous assay buffer [50 mM Hepes pH 7.0, 10 mM MgCl2, 1 mM dithiothreitol, 0.5 mM EGTA, 0.3 mM activated sodium ortho-vanadate, 0.005% (w/v) bovine serum albumin, 0.005% (v/v) Tween-20] were added and the mixture was incubated for 15 min at 22° C. to allow pre-binding of the test compounds to the enzyme before the start of the kinase reaction. […] The concentration of EGFR was adjusted depending of the activity of the enzyme lot and was chosen appropriate to have the assay in the linear range, typical concentration was 7.6 pg/μL. The reaction was stopped by the addition of 3 μL of a solution of HTRF detection reagents (83.3 nM streptavidine-XL665 [Cisbio Bioassays, Codolet, France] and 1.67 nM PT66-Tb-Cryptate, a terbium-cryptate labelled anti-phospho-tyrosine antibody from Cisbio Bioassays [instead of the PT66-Tb-cryptate PT66-Eu-Chelate from Perkin Elmer can also be used]) in an aqueous EDTA-solution (133.3 mM EDTA, 0.2% (w/v) bovine serum albumin in 50 mM HEPES pH 7.5).
The resulting mixture was incubated 1 h at 22° C. to allow the binding of the biotinylated phosphorylated peptide to the streptavidine-XL665 and the PT66-Tb-Cryptate. Subsequently the amount of phosphorylated substrate was evaluated by measurement of the resonance energy transfer from the PT66-Tb-Cryptate to the streptavidine-XL665. Therefore, the fluorescence emissions at 620 nm and 665 nm after excitation at 337 nm were measured in a HTRF reader, e.g. a Pherastar (BMG Labtechnologies, Offenburg, Germany) or a Viewlux (Perkin-Elmer). The ratio of the emissions at 665 nm and at 622 nm was taken as the measure for the amount of phosphorylated substrate.
A general note: Time-resolved FRET reads energy transfer from a long-lived donor to a nearby acceptor.

T1 sequence (P48729 whole entry): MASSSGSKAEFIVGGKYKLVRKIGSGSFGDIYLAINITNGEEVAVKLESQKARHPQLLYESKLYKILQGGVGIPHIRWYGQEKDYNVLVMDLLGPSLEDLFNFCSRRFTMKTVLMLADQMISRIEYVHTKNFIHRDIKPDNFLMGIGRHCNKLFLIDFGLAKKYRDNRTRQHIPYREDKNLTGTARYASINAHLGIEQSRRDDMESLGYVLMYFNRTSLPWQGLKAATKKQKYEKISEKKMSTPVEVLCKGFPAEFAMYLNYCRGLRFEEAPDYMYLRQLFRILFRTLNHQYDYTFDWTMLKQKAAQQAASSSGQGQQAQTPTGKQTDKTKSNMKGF
Chain of CSNK1D (P48730 whole entry): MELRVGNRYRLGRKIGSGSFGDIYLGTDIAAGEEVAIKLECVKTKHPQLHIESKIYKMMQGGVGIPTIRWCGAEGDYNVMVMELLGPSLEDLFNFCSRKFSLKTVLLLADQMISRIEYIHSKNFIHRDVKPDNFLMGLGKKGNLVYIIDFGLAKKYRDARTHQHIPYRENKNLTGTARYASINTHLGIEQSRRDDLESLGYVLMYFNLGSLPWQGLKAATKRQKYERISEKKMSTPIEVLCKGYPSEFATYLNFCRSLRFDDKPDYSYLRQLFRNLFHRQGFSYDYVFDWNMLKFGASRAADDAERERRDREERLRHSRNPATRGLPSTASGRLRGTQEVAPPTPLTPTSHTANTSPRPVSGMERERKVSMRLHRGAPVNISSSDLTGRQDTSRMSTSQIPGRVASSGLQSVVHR

With `O=C(Cc1ccc(F)cc1)Nc1cc(-c2[nH]c3ccc(F)nc3c2-c2ccc(F)cn2)ccn1` [Example 50, N-{4-[5-fluoro-3-(5-fluoropyridin-2-yl)-1H-pyrrolo[3,2-b]pyridin-2-yl]pyridin-2-yl}-2-(4-fluorophenyl)acetamide], the IC50 at CSNK1A1 [1] was determined as 0.00142 µM; at CSNK1D it was 0.00315 µM; on CSNK1A1 [2] it was 0.0416 µM.

As for “2-(4-fluorophenyl)-N-{4-[7-(2-oxopyrrolidin-1-yl)-3-(pyridin-2-yl)-1H-pyrrolo[3,2-b]pyridin-2-yl]pyridin-2-yl}acetamide [Example 40]”, the IC50 worked out at 0.0241 µM at CSNK1A1 [3] and 0.0855 µM in assay [4].
